One test concerns primary keratinocytes. In words: BrdU incorporation (DNA synthesis) in cultured primary keratinocytes. It is filed as cell-based, mouse. The source says:
Cell culture. […] Keratinocytes were transfected with Erbb2-targeted siRNA (32), Stealth RNAi Negative Control LO GC (Invitrogen, Carlsbad, Calif.), Cy3-conjugated Label IT RNAi Delivery Control (Mirus, Madison, Wis.) or sham transfection with TransIT-siQUEST Transfection Reagent (Mirus, Madison, Wis.). Plasmids with Cdc25a (Hassepass et al. 2003a) and EGFP (enhanced green fluorescent protein) cDNA were cotransfected with Lipofectamine Transfection Reagent (Invitrogen, Carlsbad, Calif.). Transfection efficiency was quantified by determining the proportion of the cells that incorporated the fluorescent Cy3-conjugated siRNA or GFP one day post-transfection. […]
Cell cycle. […] For in vitro analysis, keratinocytes were resuspended, fixed in 70% ethanol, resuspended in Vindelov's solution (3.5 mM Tris base, pH 7.6, 10 mM NaCl, 10 μg/ml Ribonuclease A, 75 μg/ml propidium iodide, 1.01l/ml IPEGAL), and analyzed on a FACSCalibur flow cytometer (Becton Dickinson, Franklin Lakes, N.J.). Cell cycle distributions were determined using ModFit LT 3.1 software (Verity Software House, Topsham, Me.). […]
Proliferation and apoptosis assays. Proliferation, survival and apoptosis were quantified in three replicate experiments. BrdU uptake was measured by a chemiluminescenit BrdU Cell Proliferation ELISA (Roche, Germany). […] MUH fluorescence from wells lacking cells was subtracted from all samples. […]
On the technique in general: Incorporation of labelled thymidine or its analogues reports DNA synthesis.

A further test relates to Cdc25a. Description: Cdc25a immunoblotting in keratinocytes. It is filed as cell-based, mouse. The settings on record: vs appropriate controls. As to the method:
Immunoblotting. Flash frozen skin was ground with a mortar and pestle on dry ice, homogenized in lysis buffer containing 10 mM Tris (pH 7.4), 150 mM NaCl, 10% glycerol, 1% Triton X-100, 1 mM EDTA, Complete Protease Inhibitor Cocktail (Roche, Germany), 1 mM Na3V O4, 1.5 μM EGTA, and 10 μM NaF. Protein was quantified using the Coomassie Brilliant Blue G-250 protein assay (Bio-Rad, Hercules, Calif.). The evenness of loading and transfer was determined by staining with Ponceau S and by actin immunoblotting. […]
Cell culture. […] Transfection efficiency was quantified by determining the proportion of the cells that incorporated the fluorescent Cy3-conjugated siRNA or GFP one day post-transfection. […]
In order to understand how Erbb2 regulates S-phase progression following UV irradiation, signaling pathways known to regulate progression into and through S-phase were examined. […] The effect of abrogation of Erbb2 on Cdc25a occurred post-transcriptionally, since no decrease in Cdc25a mRNA was detected in our microarray analysis using the Erbb2 inhibitor (32). […]

As for `COc1cc(/C=C(\C#N)C(N)=O)cc(CSc2nc3ccccc3s2)c1O` [AG825], the values for the BrdU incorporation entry in the test on primary keratinocytes (by 12 h after UV irradiation) and in the test with primary keratinocytes (sham-irradiated keratinocytes) were “reduced to nearly zero” and “significantly reduced”, respectively. Further, the Cdc25a immunoreactivity entry in the test with Cdc25a is “decreased”.

The values above are taken from patent US20080119530A1, “Method for treatment and prevention of ultraviolet light induced skin pathologies” (priority 2006, published 2008).
